# Patent US20250122193A1, “NOVEL PYRIDOCARBAZOLIUM COMPOUNDS AND MEDICAL USES THEREOF” (MyCural Therapeutics, priority 2021, published 2025)
# Legend:
# Recombinant human Top2a = Recombinant human Top2a (Homo sapiens, UniProt P11388); experiment: Top2 decatenation assay; assay type: biochemical; conditions: for effect on TOP2A activity: 1-100 μM
# Protocol: Top2 decatenation assay: Recombinant human Top2a (15 nM) was incubated with 80 ng catenated kinetoplast DNA (Topogen, TG2013) in Top2 reaction buffer (50 mM Tris pH8, 150 mM NaCl, 10 mM MgCl2, 0.5 mM DTT, 30 μg/ml BSA) with 1-100 μM of either doxorubicin, MYCMI-7, ellipticine or camptothecin for 10 minutes at 37° C. Drug dilutions were made in a DMSO/H2O solution so that a final concentration of 1% DMSO was consistent across all samples. The reaction was stopped with the addition of SDS to a final concentration of 1% and the Top2a was digested by Proteinase K at 55° C. for 10 minutes. DNA was purified by phenol:chloroform extraction before running on a 1% agarose gel either containing or post-stained with 0.5 μg/ml ethidium bromide. The decatenated products were quantified, normalised to the Top2α+DMSO control and plotted using GraphPad Prism.
# First, we utilized an in vitro TOP2A decatenation assay. TOP2 enzymes decatenate kinetoplast DNA (kDNA) converting a network of interlocking DNA rings into individual rings that can be separated by agarose gel electrophoresis.
# p53 expression = p53 expression by western blot; assay type: cell-based; conditions: 5 μM, HCT116 cells
# Protocol: (§1) A) Measurement of MYC mRNA expression by RTqPCR after treatment with MYCMI-7 and different topoisomerase inhibitors at indicated concentrations. […] D) Western blot analysis of p53 and p21 expression after exposure to 5 μM MYCMI-7, ellipticine or camptothecin (CPT) in HCT116 cells. E) Western blot analysis of phospho-ATM, total ATM and p53 expression after exposure to indicated concentrations of MYCMI-7 and ellipticine in A375 cells after 3 hrs treatment.
# (§2) For western blot equal amounts of proteins ([…]) were separated on a 4-12% SDS-PAGE gel. Proteins were transferred to Immobilion-P membrane (Millipore) and detected by immunostaining and chemoluminescence (Immobilion western HRP substrate; Millipore). For immunoprecipitations 500-1000 μg of protein was used. […] Briefly, cells were crosslinked with 1% formaldehyde on ice for 6 minutes. Nuclear chromatin was sonicated on ice to fragments from 0.3 kb to 0.5 kb. Nuclear chromatin equivalent to 2.5×10^7 cells was immunoprecipitated with 2 μg antibody.
# [1] = tested on: Rat1 fibroblasts TGR1 (wt MYC) and HOMyc3 (reconstituted MYC); experiment: WST-1 growth/viability assay, MYC-expressing Rat1 fibroblasts; assay type: cell-based, rat; conditions: TGR1, HO15.19 and HOMyc3
# Protocol: A) Immortalized Rat1 fibroblasts with different MYC status; TGR1 (wt MYC), HO15.19 (MYC−/−) and HOMyc3 (HO15.19 with reconstituted MYC) were treated with indicated concentrations of MYCMI-7 for 48 hours. Cell proliferation/viability/metabolic activity was measured using the WST-1 assay. […] “Responsive” and “less responsive”; cell lines with positive and negative log 10 GI50 values, respectively. […] For the WST-1 assays the average of three different experiments performed in triplicates is shown.
# Cell growth and viability assays: Cell growth and viability was estimated in triplicates with WST-1 (Roche) or Resazurin sodium salt (Sigma-Aldrich) assays in medium at 37° C. and 5% CO2 for 2 hours after which absorbance or fluorescence, respectively, was measured with an Omega Fluostar (BMG Labtech) in a 96 well plate format.
# phosphorylation of ATM = experiment: phospho-ATM and p53 by western blot, A375; assay type: cell-based; conditions: 5 μM, A375 cells, 3 hrs
# Protocol: as §1, §2
# MYC:MAX interaction = MYC:MAX interaction (Homo sapiens, UniProt P01106); experiment: split Gaussia luciferase (GLuc) assay, MYC:MAX; assay type: cell-based; parameters: replacing the existing Zip-gene (GCN4) with full length MYC, MYCN or MAX cDNA; expressed in transfected cells; host or cells: HeLa; conditions: HeLa cells
# Protocol: (§3) A) Molecular structure of MYCMI-7. B-E) split Gaussia luciferase (GLuc) assay. MYC or MYCN and MAX Gluc constructs were co-transfected into HeLa cells together with a firefly luciferase vector. 24 hours post transfection cells were treated with compounds, and after another 17-24 hours cells were harvested and both GLuc and firefly luciferase activities were measured. The mean of three different experiments is shown. Treatment with: B) 5 μM of MYCMI-7, 64 μM 10058-F4 or 5 μM JQ1, respectively, C) 6.5 μM MYCMI-7 on cells expressing MYC:MAX GLuc vs. GCN4:GCN4 GLuc, D) 5 μM MYCMI-7 and 5 μM ellipticine. E) 5 μM MYCMI-7 for various time points. F) in situ proximity ligation assay (isPLA). […] MYC:GAL4 was used as negative control in the isPLA assay. G) Quantification of isPLA dots. (H) Co-immunoprecipitation (co-IP) of endogenous MYC and MAX proteins from MCF7 cells after treatment with 5 μM MYCMI-7 at various times. IP=immunoprecipitation; W=western blot. I) Chromatin immunoprecipitation (ChIP) of MYC at the ODC1 target gene promoter after treatment of cells with 5 μM MYCMI-7 for 6 hours. J) MYC target gene ODC1 expression after treatment with 5 μM MYCMI-7, quantified by qPCR. K) ChIP of MYC at the ODC promoter in MCF7 cells after 5 μM MYCMI-7 treatment for indicated time points. L) Recombinant MYC bHLHZip protein domain immobilized onto a CM5 chip was subjected to various concentrations of MYCMI-7 and the complex of MYCbHLHZip-MYCMI-7 was measured as response units by SPR. The sensogram was produced by subtracting the blank response.
# 0.2-0.4 μg of each GLuc-construct together with 0.05 μg pCMV-LUC (firefly luciferase) were used per transfection in 12 well plates. 24 hours later cells were treated with compound or DMSO. After another 17 hours, the cells were harvested and lyzed in passive lysis buffer (Promega) supplemented with complete protease inhibitor (Roche). After 60 min incubation at room temperature 20 μM D-luciferin was added (substrate of Firefly luciferase) and luminescence was measured in a Lumat LB9501 (Berthold) or OmegaFluostar (BMG Labtech) luminometer. Directly after, Gaussia luciferase substrate Coelenterazine (Promega) was added to a final concentration of 20 μM in a mixture with “Stop n' Glow” (Promega) and the luciferase activity was measured. The ratio between Gaussia and Firefly luciferase values were calculated and normalized to DMSO-treated control cells.
# MYCN:MAX interaction = target: T1, MYCN:MAX interaction (Homo sapiens, UniProt P04198); experiment: split Gaussia luciferase (GLuc) assay, MYCN:MAX; assay type: cell-based; conditions: HeLa cells
# T1 construct: replacing the existing Zip-gene (GCN4) with full length MYC, MYCN or MAX cDNA; expressed in transfected cells; host or cells: HeLa
# T1 sequence (P04198 1-464): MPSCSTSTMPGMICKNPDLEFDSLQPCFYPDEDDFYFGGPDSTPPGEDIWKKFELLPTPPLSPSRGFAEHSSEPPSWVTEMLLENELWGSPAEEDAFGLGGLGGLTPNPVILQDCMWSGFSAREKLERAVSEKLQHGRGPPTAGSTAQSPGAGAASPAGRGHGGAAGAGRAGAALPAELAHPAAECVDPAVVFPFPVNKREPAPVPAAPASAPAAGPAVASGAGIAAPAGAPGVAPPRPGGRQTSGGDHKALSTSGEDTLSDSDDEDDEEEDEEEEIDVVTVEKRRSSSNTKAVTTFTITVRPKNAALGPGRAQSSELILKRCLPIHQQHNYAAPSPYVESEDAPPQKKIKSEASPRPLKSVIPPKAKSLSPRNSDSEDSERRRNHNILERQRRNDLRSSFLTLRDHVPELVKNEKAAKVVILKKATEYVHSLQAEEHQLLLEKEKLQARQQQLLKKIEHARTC
# Protocol: as §3, with “K) ChIP of MYC at the ODC promoter in MCF7 cells after 5 μM MYCMI-7 treatment for indicated time points.” left out, “The sensogram was produced by subtracting the blank response.” left out
# 0.2-0.4 μg of each GLuc-construct together with 0.05 μg pCMV-LUC (firefly luciferase) were used per transfection in 12 well plates. […] After 60 min incubation at room temperature 20 μM D-luciferin was added (substrate of Firefly luciferase) and luminescence was measured in a Lumat LB9501 (Berthold) or OmegaFluostar (BMG Labtech) luminometer. Directly after, Gaussia luciferase substrate Coelenterazine (Promega) was added to a final concentration of 20 μM in a mixture with “Stop n' Glow” (Promega) and the luciferase activity was measured. The ratio between Gaussia and Firefly luciferase values were calculated and normalized to DMSO-treated control cells.
# MYC mRNA = MYC mRNA expression by RT-qPCR; assay type: cell-based; conditions: 1 μM
# Protocol: as §1
# Recombinant human Top2a, sequence (P11388 whole entry): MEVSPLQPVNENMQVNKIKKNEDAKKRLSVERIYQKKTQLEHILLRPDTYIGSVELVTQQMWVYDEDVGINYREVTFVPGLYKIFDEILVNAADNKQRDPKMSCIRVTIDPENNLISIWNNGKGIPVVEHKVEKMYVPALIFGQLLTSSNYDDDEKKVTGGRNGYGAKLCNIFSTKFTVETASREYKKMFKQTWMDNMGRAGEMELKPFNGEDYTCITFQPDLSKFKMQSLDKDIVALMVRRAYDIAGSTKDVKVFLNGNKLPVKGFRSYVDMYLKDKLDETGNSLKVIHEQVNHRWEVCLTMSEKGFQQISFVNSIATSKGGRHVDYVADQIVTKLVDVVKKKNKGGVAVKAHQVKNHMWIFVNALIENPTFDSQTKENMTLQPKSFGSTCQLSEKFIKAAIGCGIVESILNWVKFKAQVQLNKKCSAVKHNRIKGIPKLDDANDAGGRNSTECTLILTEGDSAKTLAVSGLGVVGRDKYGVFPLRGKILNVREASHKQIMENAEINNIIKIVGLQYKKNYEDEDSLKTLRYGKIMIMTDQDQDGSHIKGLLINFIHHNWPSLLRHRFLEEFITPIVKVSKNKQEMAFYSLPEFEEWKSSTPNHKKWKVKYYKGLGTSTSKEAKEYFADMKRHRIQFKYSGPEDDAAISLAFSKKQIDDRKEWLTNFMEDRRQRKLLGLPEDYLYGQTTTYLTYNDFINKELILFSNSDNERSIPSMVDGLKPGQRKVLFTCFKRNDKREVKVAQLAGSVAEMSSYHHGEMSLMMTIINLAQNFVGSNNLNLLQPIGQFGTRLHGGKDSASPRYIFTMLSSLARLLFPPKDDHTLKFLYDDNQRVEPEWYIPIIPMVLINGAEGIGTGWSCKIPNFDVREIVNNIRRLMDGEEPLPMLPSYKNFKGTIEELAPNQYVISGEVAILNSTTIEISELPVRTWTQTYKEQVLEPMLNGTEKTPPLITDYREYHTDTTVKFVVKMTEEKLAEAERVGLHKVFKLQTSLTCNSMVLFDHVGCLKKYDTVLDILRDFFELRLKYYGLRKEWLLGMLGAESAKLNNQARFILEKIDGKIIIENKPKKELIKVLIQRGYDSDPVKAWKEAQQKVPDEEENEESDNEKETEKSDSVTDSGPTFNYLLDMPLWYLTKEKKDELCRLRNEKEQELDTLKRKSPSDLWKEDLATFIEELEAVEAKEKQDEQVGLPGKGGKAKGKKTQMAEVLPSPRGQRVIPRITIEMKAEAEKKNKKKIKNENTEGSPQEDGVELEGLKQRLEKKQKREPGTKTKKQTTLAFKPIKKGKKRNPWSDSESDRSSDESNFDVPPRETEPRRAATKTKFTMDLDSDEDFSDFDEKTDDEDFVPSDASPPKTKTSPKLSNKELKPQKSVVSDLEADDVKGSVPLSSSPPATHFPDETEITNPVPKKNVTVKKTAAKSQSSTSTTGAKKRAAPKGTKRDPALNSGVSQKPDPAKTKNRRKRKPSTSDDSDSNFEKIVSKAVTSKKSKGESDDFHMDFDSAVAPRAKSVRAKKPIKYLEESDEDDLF
# MYC:MAX interaction, sequence (P01106 16-454): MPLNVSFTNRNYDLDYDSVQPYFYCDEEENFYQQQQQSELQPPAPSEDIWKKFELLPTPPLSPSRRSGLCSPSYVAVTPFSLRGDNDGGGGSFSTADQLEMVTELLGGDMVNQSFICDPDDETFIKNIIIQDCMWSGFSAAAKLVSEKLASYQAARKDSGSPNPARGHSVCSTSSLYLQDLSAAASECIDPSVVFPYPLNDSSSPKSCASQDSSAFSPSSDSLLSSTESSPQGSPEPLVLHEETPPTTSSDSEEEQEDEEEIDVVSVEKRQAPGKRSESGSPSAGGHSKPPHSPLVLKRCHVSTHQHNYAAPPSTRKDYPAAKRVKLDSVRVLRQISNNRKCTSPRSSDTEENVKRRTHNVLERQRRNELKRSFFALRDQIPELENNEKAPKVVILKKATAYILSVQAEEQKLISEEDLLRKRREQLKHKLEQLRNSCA
smiles,measurement,setting,value
"CC[C@@]1(O)C(=O)OCc2c1cc1n(c2=O)Cc2cc3ccccc3nc2-1 [camptothecin, reference compound]",effect on TOP2A activity,Recombinant human Top2a,no effect
same,p53 expression,p53 expression,induced p53 expression
"Cc1c2ccncc2c(C)c2c1[nH]c1ccccc12 [ellipticine, reference compound]",growth of Rat1 cell clones irrespective of MYC status,[1],reduced growth of all three cell clones
same,effect on TOP2A activity,Recombinant human Top2a,no effect
same,p53 expression,p53 expression,induced p53 expression
same,phosphorylation of ATM and p53 expression (DDR signaling),phosphorylation of ATM,strongly induced
same,inhibition of MYC:MAX GLuc interaction,MYC:MAX interaction; 5 μM,inactive
Cc1sc2c(c1C)C(c1ccc(Cl)cc1)=N[C@@H](CC(=O)OC(C)(C)C)c1nnc(C)n1-2 [JQ1],inhibition of MYCN:MAX GLuc interaction,MYCN:MAX interaction; 5 μM,only weak effects
same,inhibition of MYC:MAX GLuc interaction,MYC:MAX interaction; 5 μM,only weak effects
"CCc1ccc(/C=C2/SC(=S)NC2=O)cc1 [Example 10058-F4, 10058-F4]",inhibition of MYCN:MAX GLuc interaction,MYCN:MAX interaction; 64 μM,only weak effects
same,inhibition of MYC:MAX GLuc interaction,MYC:MAX interaction; 64 μM,only weak effects
COc1cccc2c1C(=O)c1c(O)c3c(c(O)c1C2=O)C[C@@](O)(C(=O)CO)C[C@@H]3O[C@H]1C[C@H](N)[C@H](O)[C@H](C)O1 [doxorubicin],MYC expression (mRNA),MYC mRNA,strongly reduced
same,concentration at which TOP2A inhibition starts,Recombinant human Top2a; in vitro decatenation of kDNA,3 µM
same,concentration of complete TOP2A inhibition,Recombinant human Top2a; in vitro decatenation of kDNA,10 µM
